Legend:
[1] = CNS penetration: intravenous cassette pharmacokinetic study, brain and plasma by LC-MS/MS; details: mouse, intravenous
Protocol: To assess penetration of compounds into the mouse central nervous system, intravenous pharmacokinetic studies were undertaken in C57B16/J mice. […] Compounds were then combined into a single dosing solution and administered together via the intravenous route into 24 mice. Total compound dose administered to each mouse was 2mg/kg. Mice were culled at various times post dosing and brain and plasma collected for bioanalysis. In particular, mice were culled and plasma collected for bioanalysis at 8 time points out to 24 hours post dosing. Brains were also collected for bioanalysis at various time points to assess CNS penetration. 2 hour and 4 hour brain collection was carried out in all studies. Additional time points were collected in selected studies.
For bioanalysis, compounds were prepared in DMSO and aliquoted together to ensure a final concentration of 1mg/mL per compound in DMSO. Analytical standards were prepared from the initial 1mg/mL stock solution of compound, with a 12-point standard curve range from 0.5ng/mL to 2000ng/mL, with independent quality control tests from 1ng/mL to 1000ng/mL run to validate the standards. All standards and QC samples were matrix matched to eliminate possible suppression. Plasma samples were prepared with a 1:10 dilution in plasma. […] Dose solutions were diluted in a control matrix to a relative concentration that fell on the standard curve. Cold acetonitrile containing internal standard was added to all samples, standards, dose samples and QC samples; samples were then centrifuged for 30 minutes at 4000rpm. After centrifugation, supernatant was transferred to a new 96-well plate, diluted with an equal volume of water and mixed thoroughly before LC-MS analysis.
Supernatents were analysed by LC-MS/MS. From the analysis data a response ratio was obtained using the formula Response Ratio = Test Peak Area/Internal Standard Peak Area. From the standard curve, the test peak area was converted to concentration of test compound.
To establish CNS penetration, the ratio of the concentration of each compound in the plasma samples to the brain samples was assessed.

[2] = target: T1, P2Y1 receptor (Homo sapiens, UniProt P47900); experiment: Cell based HTRF assay measuring IP1 accumulation; antagonism of the P2Y1 agonist MRS2365; details: rounded to nearest whole number; read-out: IC50 IP1
T1 construct: expressed in transfected cells
Protocol: IC50 values were determined using a cell based assay in stably transfected cells overexpressing the P2Y1 receptor. The assay system is a high throughput […] assay measuring accumulation of the intracellular messenger inositol monophosphate (IP1), generated intracellularly following activation of P2Y1.
P2Y1 overexpressing cells were maintained in T175 flasks. The day before the assay, these cells were split and 20µl cell suspension transferred to each well of white 384-well assay plates at a cell density of 0.5x10^6 cells/mL. Plates were pulse centrifuged, then incubated overnight at 37°C / 5% CO2 prior to assay.
On day of assay, medium was removed from cells and replaced with stimulation buffer. […] Positive control antagonist curves with standard compounds were included on each plate. Plates were incubated with antagonists for 1 hour prior to addition of 5nM of the agonist MRS2365, dispensed using a Bravo liquid handler. Following agonist addition, plates were incubated for 60 minutes prior to assay. Both incubations were carried out at 37°C / 5% CO2.
For the assay, IP1 accumulation was quantified using the IPOne kit according to manufacturer's instructions. In short, a standard curve was prepared for IP1 quantification, and cells lysed using kit lysis buffer. Assay reagents were added to the lysates, and incubated for 1 hour at room temperature without spinning or shaking. Plates were analysed on a BMG Pherastar plate reader, and IP1 signal generated in cells interpolated from the standard curve.

T1 sequence (P47900 whole entry): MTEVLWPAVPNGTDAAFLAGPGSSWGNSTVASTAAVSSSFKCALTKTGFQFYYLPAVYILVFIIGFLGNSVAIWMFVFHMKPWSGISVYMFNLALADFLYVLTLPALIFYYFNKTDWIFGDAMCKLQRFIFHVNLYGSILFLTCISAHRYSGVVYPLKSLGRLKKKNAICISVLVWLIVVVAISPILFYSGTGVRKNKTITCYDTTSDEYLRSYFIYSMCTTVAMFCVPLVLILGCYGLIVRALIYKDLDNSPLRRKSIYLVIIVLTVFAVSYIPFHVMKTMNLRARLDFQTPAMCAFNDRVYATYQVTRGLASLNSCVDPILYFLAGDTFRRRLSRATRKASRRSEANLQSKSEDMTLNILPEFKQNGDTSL

For `CC1(C)CN(c2ccccc2NC(=O)Nc2ccc(OC(F)(F)F)cc2)c2c(O)ccc(-c3ccc(Cl)cc3)c21` [RS1, 1-(2-(4-(4-chlorophenyl)-7-hydroxy-3,3-dimethylindolin-1-yl)phenyl)-3-(4-(trifluoromethoxy)phenyl)urea, reference compound], the “CNS penetration (in words)” value [1] was “no apparent CNS penetration”.
For `Cc1ccc(NC(=O)Nc2ccc(OC(F)(F)F)cc2)c(Oc2ccccc2C(C)(C)C)n1` [RS2, 1-(2-(2-(tert-butyl)phenoxy)-6-methylpyridin-3-yl)-3-(4-(trifluoromethoxy)phenyl)urea, reference compound], the “CNS penetration (in words)” value [1] was “no apparent CNS penetration”.
For `CC(C)(C)c1ccccc1Sc1ncccc1NC(=O)Nc1ccc(OC(F)(F)F)cc1` [S3], the IC50 [2] was 57 nM.
With `CC(C)(C)c1ccccc1Oc1ncccc1NC(=O)Nc1ccc2c(c1)OC(F)(F)O2` [S6] the IC50 [2] was 76 nM.
In the case of `Cc1c(Oc2ncccc2NC(=O)Nc2ccc(OC(F)(F)F)cc2)cccc1-c1ccccc1` [S7], the IC50 [2] is reported as 99 nM.
`O=C(Nc1ccc(OC(F)(F)F)cc1)Nc1cccnc1Oc1ccccc1S(F)(F)(F)(F)F` [S10] showed an IC50 [2] of 124 nM.
In the case of `Cc1c(Oc2ncccc2NC(=O)Nc2ccc(OC(F)(F)F)cc2)cccc1N(C)C` [S12], the IC50 [2] is reported as 151 nM.
With `Cc1cnc(Oc2ccccc2C(C)(C)C)c(NC(=O)Nc2ccc(OC(F)(F)F)cc2)c1` [S13] the IC50 [2] was 151 nM.
Compound `O=C(Nc1ccc(OC(F)(F)F)cc1F)Nc1cccnc1Oc1ccccc1S(F)(F)(F)(F)F` [S14] has an IC50 [2] of 173 nM.
For `CC(C)c1ccc(C(F)F)cc1Oc1ncccc1NC(=O)Nc1ccc(OC(F)(F)F)cc1` [S15], the IC50 [2] was 179 nM.
With `Cc1c(Oc2ncccc2NC(=O)Nc2ccc(OC(F)(F)F)cc2)cccc1-c1ccc(C#N)cc1` [S16] the IC50 [2] was 202 nM.
For `CC(C)(C)c1ccccc1Oc1ncccc1NC(=O)Nc1nc2ccc(Cl)nc2s1` [S17], the IC50 [2] was 209 nM.
Work on `CC(C)(C)c1ccccc1Oc1ncncc1NC(=O)Nc1ccc(OC(F)(F)F)cc1` [S18] yielded an IC50 [2] of 236 nM.
`CC(C)(C)c1ccccc1Oc1ncc(C#N)cc1NC(=O)Nc1ccc(OC(F)(F)F)cc1` [S19] gave an IC50 [2] of 264 nM.
In the case of `CC(C)(C)c1cccc(Oc2ncccc2NC(=O)Nc2ccc(OC(F)(F)F)cc2)c1` [S20], the IC50 [2] is reported as 276 nM.
`CC(C)(C)c1ccccc1Oc1ncccc1NC(=O)NCc1ccc(OC(F)(F)F)cc1` [S21] showed an IC50 [2] of 301 nM.
`Cc1ccnc(Oc2ccccc2C(C)(C)C)c1NC(=O)Nc1ccc(OC(F)(F)F)cc1` [S22] showed an IC50 [2] of 302 nM.
Compound `Cc1c(Oc2ncccc2NC(=O)Nc2ccc(OC(F)(F)F)cc2)cccc1N1CCOCC1` [S23] has an IC50 [2] of 332 nM.
`Cc1cccc(Oc2ncccc2NC(=O)Nc2ccc(OC(F)(F)F)cc2)c1Br` [S24] showed an IC50 [2] of 398 nM.
With `CC(C)(C)c1ccccc1Oc1ncc(-c2ccc3c(c2)OCCN3)cc1NC(=O)Nc1ccc(OC(F)(F)F)cc1` [S26] the IC50 [2] was 493 nM.
`Cc1c(Oc2ncccc2NC(=O)Nc2ccc(OC(F)(F)F)cc2)cccc1-c1cccc(C#N)c1` [S27] gave an IC50 [2] of 512 nM.
Compound `Cc1c(Br)cccc1Oc1ncccc1NC(=O)Nc1ccc(OC(F)(F)F)cc1` [S28] has an IC50 [2] of 513 nM.
`CC(C)(C)c1ccccc1Oc1ncc(Br)cc1NC(=O)Nc1ccc(OC(F)(F)F)cc1` [S29] gave an IC50 [2] of 514 nM.
Work on `CC(C)c1cccc(C(F)F)c1Oc1ncccc1NC(=O)Nc1ccc(OC(F)(F)F)cc1` [S30] yielded an IC50 [2] of 574 nM.
`O=C(Nc1ccc(OC(F)(F)F)cc1)Nc1cccnc1Oc1cccc(N2CCCCC2)c1` [S31] showed an IC50 [2] of 607 nM.
`O=C(Nc1ccc(OC(F)(F)F)cc1)Nc1cccnc1Oc1ccccc1N1CCCCC1` [S33] gave an IC50 [2] of 632 nM.
For `CC(C)(C)c1ccccc1Oc1ncccc1NC(=O)NCCCc1ccccc1` [S34], the IC50 [2] was 640 nM.
For `Cc1c(Oc2ncccc2NC(=O)Nc2ccc(OC(F)(F)F)cc2)cccc1N1CCCC1` [S35], the IC50 [2] was 655 nM.
In the case of `Cc1c(Oc2ncccc2NC(=O)Nc2ccc(OC(F)(F)F)cc2)cccc1N1CCC2(CC1)COC2` [S36], the IC50 [2] is reported as 732 nM.
In the case of `Cc1c(Oc2ncccc2NC(=O)Nc2ccc(OC(F)(F)F)cc2)cccc1-c1ccc2ccn(C)c2c1` [S37], the IC50 [2] is reported as 778 nM.
`O=C(Nc1ccc(OC(F)(F)F)cc1)Nc1cccnc1Oc1cccc(-c2ccccc2)c1` [S39] gave an IC50 [2] of 827 nM.
With `O=C(Nc1ccc(OC(F)(F)F)cc1)Nc1cccnc1Oc1cccc(OCc2ccccc2)c1` [S40] the IC50 [2] was 924 nM.
Compound `O=C(Nc1ccc(OC(F)(F)F)cc1)Nc1cccnc1Oc1ccccc1Br` [S41] has an IC50 [2] of 925 nM.
Work on `CC(C)(C)c1ccc(O)c(Oc2ncccc2NC(=O)Nc2ccc(OC(F)(F)F)cc2)c1` [S42] yielded an IC50 [2] of 948 nM.
With `CC(C)(C)c1ccccc1Oc1ncccc1NC(=O)NCCc1ccccc1` [S43] the IC50 [2] was 958 nM.
With `Cc1c(C#N)cccc1Oc1ncccc1NC(=O)Nc1ccc(OC(F)(F)F)cc1` [S44] the IC50 [2] was 1030 nM.
Work on `CC(C)(C)c1ccccc1Oc1ccsc1NC(=O)Nc1ccc(OC(F)(F)F)cc1` [S45] yielded an IC50 [2] of 1060 nM.
Compound `Cc1cccc(Oc2ncccc2NC(=O)Nc2ccc(OC(F)(F)F)cc2)c1` [S47] has an IC50 [2] of 1100 nM.
`Cn1cc(-c2cnc(Oc3ccccc3C(C)(C)C)c(NC(=O)Nc3ccc(OC(F)(F)F)cc3)c2)cn1` [S48] gave an IC50 [2] of 1110 nM.
Work on `Cc1c(Oc2ncccc2NC(=O)Nc2ccc(OC(F)(F)F)cc2)cccc1-c1ccc2c(c1)OCCN2` [S49] yielded an IC50 [2] of 1240 nM.
In the case of `O=C(Nc1ccc(OC(F)(F)F)cc1)Nc1cccnc1Oc1cc(O)ccc1Br` [S50], the IC50 [2] is reported as 1280 nM.
`O=C(Nc1ccc(OC(F)(F)F)cc1)Nc1cccnc1Oc1cccc(Br)c1` [S51] gave an IC50 [2] of 1320 nM.
Compound `O=C(Nc1ccc(OC(F)(F)F)cc1)Nc1cccnc1Oc1cccc(O)c1` [S52] has an IC50 [2] of 1410 nM.
In the case of `CC(C)(C)c1ccccc1Oc1nnccc1NC(=O)Nc1ccc(OC(F)(F)F)cc1` [S53], the IC50 [2] is reported as 1770 nM.
`CC(C)(C)c1ccccc1Oc1nccc(O)c1NC(=O)Nc1ccccc1` [S54] gave an IC50 [2] of 1770 nM.
Work on `Cc1ccc(C)c(Oc2ncccc2NC(=O)Nc2ccc(OC(F)(F)F)cc2)c1` [S55] yielded an IC50 [2] of 1970 nM.
With `CC(C)(C)c1ccccc1Oc1ncc(-c2cccc(C#N)c2)cc1NC(=O)Nc1ccc(OC(F)(F)F)cc1` [S56] the IC50 [2] was 1960 nM.
Work on `Cc1ccccc1Oc1ncc(C(F)F)cc1NC(=O)Nc1ccc(OC(F)(F)F)cc1` [S57] yielded an IC50 [2] of 1990 nM.
`CC(C)(C)c1ccccc1Oc1ncc(-c2ccc(C#N)cc2)cc1NC(=O)Nc1ccc(OC(F)(F)F)cc1` [S58] showed an IC50 [2] of 2100 nM.
`Cc1c(Oc2ncccc2NC(=O)Nc2ccc(OC(F)(F)F)cc2)cccc1N1CC2CC1CO2` (stereo not drawn) [S59] showed an IC50 [2] of 2140 nM.
`Cc1c(Oc2ncccc2NC(=O)Nc2ccc(OC(F)(F)F)cc2)cccc1-c1cnn(C)c1` [S61] gave an IC50 [2] of 2460 nM.
With `COc1ccc([C@H](C)NC(=O)Nc2cccnc2Oc2ccccc2C(C)(C)C)cc1` [S62] the IC50 [2] was 2470 nM.
Compound `N#Cc1cccc(-c2cccc(Oc3ncccc3NC(=O)Nc3ccc(OC(F)(F)F)cc3)c2)c1` [S63] has an IC50 [2] of 2510 nM.
`Cc1cnc(Oc2cccc(N3CCCCC3)c2C)c(NC(=O)Nc2ccc(OC(F)(F)F)cc2)c1` [S64] gave an IC50 [2] of 2810 nM.
For `O=C(Nc1ccc(OC(F)(F)F)cc1)Nc1cccnc1Oc1ccccc1` [S65], the IC50 [2] was 2860 nM.
Work on `C=Cc1cnc(Oc2ccccc2C)c(NC(=O)Nc2ccc(OC(F)(F)F)cc2)c1` [S67] yielded an IC50 [2] of 3350 nM.
`C#Cc1cnc(Oc2ccccc2C)c(NC(=O)Nc2ccc(OC(F)(F)F)cc2)c1` [S68] gave an IC50 [2] of 3590 nM.
With `Cc1ccccc1Oc1ncc(C(F)(F)F)cc1NC(=O)Nc1ccc(OC(F)(F)F)cc1` [S69] the IC50 [2] was 4390 nM.
In the case of `Cc1ccccc1COc1ncccc1NC(=O)Nc1ccc(OC(F)(F)F)cc1` [S70], the IC50 [2] is reported as 4590 nM.
Compound `N#Cc1ccc(-c2cccc(Oc3ncccc3NC(=O)Nc3ccc(OC(F)(F)F)cc3)c2)cc1` [S71] has an IC50 [2] of 4940 nM.
With `Cc1ccccc1Oc1ncc(Br)cc1NC(=O)Nc1ccc(OC(F)(F)F)cc1` [S72] the IC50 [2] was 4940 nM.
In the case of `N#Cc1cccc(Oc2ncccc2NC(=O)Nc2ccc(OC(F)(F)F)cc2)c1` [S73], the IC50 [2] is reported as 5840 nM.
For `CC(c1ccccc1Oc1ncccc1NC(=O)Nc1ccc(OC(F)(F)F)cc1)N1CCCCC1` (stereo not drawn) [S74], the IC50 [2] was 6000 nM.
With `Cc1c(Oc2ncccc2NC(=O)Nc2ccc(OC(F)(F)F)cc2)cccc1S(C)(=O)=O` [S75] the IC50 [2] was 6590 nM.
In the case of `CC(C)(C)c1ccccc1Oc1ncccc1NC(=O)NC1CC2(C1)CN(CC(F)(F)F)C2` [S76], the IC50 [2] is reported as 7070 nM.
`CC(C)(O)c1ccccc1Oc1ncccc1NC(=O)Nc1ccc(OC(F)(F)F)cc1` [S77] showed an IC50 [2] of 7120 nM.
In the case of `COc1ccc(Br)c(Oc2ncccc2NC(=O)Nc2ccc(OC(F)(F)F)cc2)c1` [S78], the IC50 [2] is reported as 7160 nM.
`CC(C)(C)c1ccccc1Oc1ncc(-c2ccccc2)cc1NC(=O)Nc1ccc(OC(F)(F)F)cc1` [S79] gave an IC50 [2] of 7580 nM.
For `O=C(Nc1ccc(F)cc1F)Nc1cccnc1Oc1ccc(C(F)(F)F)cc1` [S80], the IC50 [2] was 7940 nM.
`Cc1ccccc1Oc1ncncc1NC(=O)Nc1ccc(OC(F)(F)F)cc1` [S81] showed an IC50 [2] of 8120 nM.
With `Cn1cc(-c2cccc(Oc3ncccc3NC(=O)Nc3ccc(OC(F)(F)F)cc3)c2)cn1` [S82] the IC50 [2] was 8180 nM.
Compound `O=C(Nc1ccc(OC(F)(F)F)cc1)Nc1cccnc1Oc1cccc(N2CCOCC2)c1` [S83] has an IC50 [2] of 8730 nM.
Compound `Cc1ccccc1Oc1ncc(NC2CCOCC2)cc1NC(=O)Nc1ccc(OC(F)(F)F)cc1` [S84] has an IC50 [2] of 8990 nM.
With `Cc1c(Oc2ncccc2NC(=O)Nc2ccc(OC(F)(F)F)cc2)cccc1-c1cccc(CN(C)C)c1` [S85] the IC50 [2] was 9530 nM.
For `CCOC(=O)c1nnc(NC(=O)Nc2cccnc2Oc2ccccc2C(C)(C)C)s1` [S86], the IC50 [2] was 9680 nM.

From patent EP4094762A1, “TREATMENT OF NEUROLOGICAL INDICATIONS” (UCL Business Ltd, priority 2021, dated 2022)
